Data taken from US10106504B2, “Pyridin-3-yl acetic acid derivatives as inhibitors of human immunodeficiency virus replication” (priority 2015, dated 2018).

The compounds below were run on NL-RLuc virus (assay: Inhibition of HIV replication (NL-RLuc virus, luciferase readout in MT-2 cells)). Conditions: Human immunodeficiency virus 1, MT2, 120 h, read-out: Activity.
Format: cell-based
Outline: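 MT-2 cells were infected with NL-RLuc (Renilla luciferase in place of nef) in the presence of serial compound dilutions, in RPMI 1640 with 10% heat-inactivated FBS. After 5 days, luciferase was measured. EC50 came from the median effect equation using at least 2 experiments.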

Row | SMILES | EC50 [µM]
1 | Cc1nc(C)c([C@H](OC(C)(C)C)C(=O)O)c(-c2cc(F)c3c(c2C)CCCO3)c1-c1ccc2c(c1)CCN(Cc1ccccc1F)C2 [Example 38, (2S)-2-(tert-Butoxy)-2-(4-(8-fluoro-5-methylchroman-6-yl)-5-(2-(2-fluorobenzyl)-1,2,3,4-tetrahydroisoquinolin-6-yl)-2,6-dimethylpyridin-3-yl)acetic Acid] | < 0.1
2 | Cc1nc(CN(C)C)c(-c2ccc(OCCc3ccc(F)cc3)cc2)c(-c2ccc3c(c2)CCCO3)c1[C@H](OC(C)(C)C)C(=O)O [Example 10, (S)-2-(tert-Butoxy)-2-(4-(chroman-6-yl)-6-((dimethylamino)methyl)-5-(4-(4-fluorophenethoxy)phenyl)-2-methylpyridin-3-yl)acetic Acid] | < 0.1
3 | Cc1nc(C)c([C@H](OC(C)(C)C)C(=O)O)c(-c2ccc3c(c2)CCCO3)c1-c1ccc2c(c1)CCN(c1ncnc3c1cnn3C)C2 [Example 54, (S)-2-(tert-Butoxy)-2-(4-(chroman-6-yl)-2,6-dimethyl-5-(2-(1-methyl-1H-pyrazolo[3,4-d]pyrimidin-4-yl)-1,2,3,4-tetrahydroisoquinolin-6-yl)pyridin-3-yl)acetic Acid] | < 0.1
4 | Cc1cccc(Cl)c1CN1CCc2cc(-c3c(C)nc(C)c([C@H](OC(C)(C)C)C(=O)O)c3-c3cc(F)c4c(c3)CCCO4)ccc2C1 [Example 51, (S)-2-(tert-Butoxy)-2-(5-(2-(2-chloro-6-methylbenzyl)-1,2,3,4-tetrahydroisoquinolin-6-yl)-4-(8-fluorochroman-6-yl)-2,6-dimethylpyridin-3-yl)acetic Acid] | < 0.1
5 | COCCNCc1nc(C)c([C@H](OC(C)(C)C)C(=O)O)c(-c2ccc3c(c2)CCCO3)c1-c1ccc(OCCc2ccc(F)cc2)cc1 [Example 12, (S)-2-(tert-Butoxy)-2-(4-(chroman-6-yl)-5-(4-(4-fluorophenethoxy)phenyl)-6-(((2-methoxyethyl)amino)methyl)-2-methylpyridin-3-yl)acetic Acid] | < 0.1
6 | Cc1cccc(F)c1CN1CCc2cc(-c3c(C)nc(C)c([C@H](OC(C)(C)C)C(=O)O)c3-c3cc(F)c4c(c3)CCCO4)ccc2C1 [Example 49, (S)-2-(tert-Butoxy)-2-(5-(2-(2-fluoro-6-methylbenzyl)-1,2,3,4-tetrahydroisoquinolin-6-yl)-4-(8-fluorochroman-6-yl)-2,6-dimethylpyridin-3-yl)acetic Acid] | < 0.1
7 | Cc1cc(N2CCc3cc(-c4c(CCCC5CCOCC5)nc(C)c([C@H](OC(C)(C)C)C(=O)O)c4-c4ccc5c(c4)CCCO5)ccc3C2)ncn1 [Example 67, (S)-2-(tert-Butoxy)-2-(4-(chroman-6-yl)-2-methyl-5-(2-(6-methylpyrimidin-4-yl)-1,2,3,4-tetrahydroisoquinolin-6-yl)-6-(3-(tetrahydro-2H-pyran-4-yl)propyl)pyridin-3-yl)acetic Acid] | < 0.1
8 | COc1nccc(N2CCc3cc(-c4c(C)nc(C)c([C@H](OC(C)(C)C)C(=O)O)c4-c4ccc5c(c4)CCCO5)ccc3C2)n1 [Example 57, (S)-2-(tert-Butoxy)-2-(4-(chroman-6-yl)-5-(2-(2-methoxypyrimidin-4-yl)-1,2,3,4-tetrahydroisoquinolin-6-yl)-2,6-dimethylpyridin-3-yl)acetic Acid] | < 0.1
9 | Cc1nc(C)c([C@H](OC(C)(C)C)C(=O)O)c(-c2ccc3c(c2)CCCO3)c1-c1ccc(OCCc2ccccc2F)cc1 [Example 45, (S)-2-(tert-Butoxy)-2-(4-(chroman-6-yl)-5-(4-(2-fluorophenethoxy)phenyl)-2,6-dimethylpyridin-3-yl)acetic Acid] | < 0.1
10 | Cc1cccc(CN2CCc3cc(-c4c(C)nc(C)c([C@H](OC(C)(C)C)C(=O)O)c4-c4ccc5c(c4)CCCO5)ccc3C2)c1F [Example 26, (S)-2-(tert-Butoxy)-2-(4-(chroman-6-yl)-5-(2-(2-fluoro-3-methylbenzyl)-1,2,3,4-tetrahydroisoquinolin-6-yl)-2,6-dimethylpyridin-3-yl)acetic Acid] | < 0.1

Same assay, conditions: Human immunodeficiency virus 1, MT2, 120 h, read-out: EC50 μM

Row | SMILES | EC50 [µM]
11 | Cc1nc(C)c([C@H](OC(C)(C)C)C(=O)O)c(-c2ccc3c(c2)CCCO3)c1-c1ccc2c(c1)CCN(c1ncnc3c1cnn3C)C2 [Example 54, (S)-2-(tert-Butoxy)-2-(4-(chroman-6-yl)-2,6-dimethyl-5-(2-(1-methyl-1H-pyrazolo[3,4-d]pyrimidin-4-yl)-1,2,3,4-tetrahydroisoquinolin-6-yl)pyridin-3-yl)acetic Acid] | 0.008
12 | COCCNCc1nc(C)c([C@H](OC(C)(C)C)C(=O)O)c(-c2ccc3c(c2)CCCO3)c1-c1ccc(OCCc2ccc(F)cc2)cc1 [Example 12, (S)-2-(tert-Butoxy)-2-(4-(chroman-6-yl)-5-(4-(4-fluorophenethoxy)phenyl)-6-(((2-methoxyethyl)amino)methyl)-2-methylpyridin-3-yl)acetic Acid] | 0.007
